Results from patent US20250297116A1, “PRECURSOR COMPOUNDS FOR MOLECULAR COATINGS” (Apeel Technology, Inc., priority 2015, published 2025).

Legend:
[1] = tested on: edible substrates (blueberries, bananas, strawberries, lemons, avocados, and limes); test: Coating studies on edible substrates: mass loss over time and visible residues; conditions: coated edible substrates
Description: For these studies, mixtures (which were typically solid but in some cases were oils) comprising compounds of Formula I and/or compounds of Formula II and/or other additives (e.g., 1-monoacylglycerides, fatty acids, esters, amides, amines, thiols, carboxylic acids, ethers, aliphatic waxes, alcohols, salts (inorganic and organic), or combinations thereof) were first formed. The mixtures were then dissolved in a solvent (e.g., either ethanol or a water and ethanol mixture, for instance in a 1:2 water:ethanol ratio or lower) to form a solution, from which coatings were formed over a variety of edible substrates (blueberries, bananas, strawberries, lemons, avocados, and limes). Details about the specific formulations used and procedures for the forming of the coatings are described below for illustrative purposes with reference to FIGS. 2-18. The substrates were then examined for the presence of visible residues on the surface and tested for percent mass loss over time, and were compared to control samples without the coatings. A variety of different compositions of mixtures (e.g., solid mixtures) were used to form coatings on a variety of edible substrates, where the specific compositions and coating procedures are described below with reference to FIGS. 2-18. Some of the compositions were substantially pure (e.g., at least 90% or at least 95% pure) 2-monoacylglyceride compounds (e.g., compounds of Formula I). For example, coatings were formed from compositions that were substantially pure PA-2G, as well as from compositions that were substantially pure SA-2G. Some of the compositions were substantially pure (e.g., at least 90% or at least 95% pure) 1-monoacylglyceride compounds (e.g., compounds of Formula II). For example, coatings were formed from compositions that were substantially pure PA-1G, compositions that were substantially pure OA-1G, and compositions that were substantially pure SA-1G. Some of the compositions included a compound of Formula I and an additive, where for each of these compositions various ratios of the compound of Formula I to the additive were tested. For example, coatings were formed from compositions which included the combinations of a compound of Formula I and an additive as listed in Table 1 below. Additives included, for example, a saturated or unsaturated compound of Formula II, a saturated or unsaturated fatty acid, an ethyl ester, and/or a second compound of Formula I which is different from the (first) compound of Formula I (e.g., has a different length carbon chain).

finger limes = test: Average daily mass loss rate and residues of coated finger limes; conditions: bag coated, 10 mg/mL in ethanol, over several days, 24 finger limes per group, 23-27°C, 40-55% humidity
Description: FIGS. 2-18 illustrate the effects of coating a variety of edible substrates with the compositions described herein. To form the coatings, solid mixtures of the compositions were first fully dissolved in ethanol at a concentration of 10 mg/mL (except where a different concentration is specified) to form a solution. The solution was then applied to the substrate either by spraying or dip coating, as detailed for each of the substrates below. The substrates were then dried on drying racks under ambient conditions (temperature in the range of 23° C.-27° C., humidity in the range of 40%-55%) until all of the solvent had evaporated, allowing the coatings to form over the substrates. […] For all mixtures described, PA was purchased from Sigma Aldrich, PA-1G was purchased from Tokyo Chemical Industry Co, PA-2G was prepared following the method of Example 1 above, SA was purchased from Sigma Aldrich, SA-1G was purchased from Alfa Aesar, SA-2G was prepared following the method of Example 3 above, MA was purchased from Sigma Aldrich, MA-1G was purchased from Tokyo Chemical Industry Co, OA was purchased from Sigma Aldrich, and EtPA was purchased from Sigma Aldrich.
FIG. 11 is a graph showing average daily mass loss rates for finger limes coated with various mixtures of PA-2G (compound of Formula I) and PA-1G (additive) measured over the course of several days. […]

SMILES | reduction in mass loss versus uncoated control samples [1] | average daily mass loss rate (finger limes)
CCCCCCCCCCCCCC(=O)OCC(O)CO (centres unmarked) [MA-1G, 2,3-dihydroxypropan-1-yl tetradecanoate] | at most a nominal reduction in mass loss | 
CCCCCCCC/C=C\CCCCCCCC(=O)OCC(O)CO (centres unmarked) [OA-1G, 2,3-dihydroxypropan-1-yl (9Z)-Octadecenoate] | at most a nominal reduction in mass loss | 
CCCCCCCCCCCCCCCC(=O)OCC(O)CO (centres unmarked) [PA-1G, 2,3-dihydroxypropan-1-yl palmitate] | at most a nominal reduction in mass loss | over 4 % per day
CCCCCCCCCCCCCCCC(=O)OC(CO)CO [PA-2G, 1,3-dihydroxypropan-2-yl palmitate] | at most a nominal reduction in mass loss | under 4 % per day
CCCCCCCCCCCCCCCCCC(=O)OCC(O)CO (centres unmarked) [SA-1G, 2,3-dihydroxypropan-1-yl octadecanoate] | at most a nominal reduction in mass loss | 
CCCCCCCCCCCCCCCCCC(=O)OC(CO)CO [SA-2G, 1,3-dihydroxypropan-2-yl octadecanoate] | at most a nominal reduction in mass loss | 
